Test results: PMC10537553, “Synthesis, DFT Study, and In Vitro Evaluation of Antioxidant Properties and Cytotoxic and Cytoprotective Effects of New Hydrazones on SH-SY5Y Neuroblastoma Cell Lines” (Pharmaceuticals, 2023)
“Also recorded” adds a separate entry of the source.

Key:
[1] = MTT cell viability assay (cytotoxicity); type: cell-based, human; details: human, SH-SY5Y neuroblastoma cells, 1–500 μM, 24 h, MTT
Protocol: (§1) The effects of the newly synthesized N-pyrrolyl-hydrazone derivatives on the cellular viability of neuronal SH-SY5Y cells were evaluated, and the corresponding IC50 values were calculated. In the current study, the cells were seeded at density 2 × 10^4 and were treated with the test compounds at concentrations 1–500 μM for 24 h.
(§2) Human neuroblastoma cell line SH-SY5Y was purchased from European Collection of Cell Cultures (ECACC, Salisbury, UK). SH-SY5Y cells were cultivated in an RPMI 1640 medium supplemented with 10% heat-inactivated FBS, 2 mM L-glutamine, and 1% antibiotics (penicillin/streptomycin). The cell line was incubated at 37 °C with 5% of CO2, and the culture’s medium was replaced with a time interval of 2–3 days.
(§3) The SH-SY5Y cells were plated for 24 h at 37 °C on 96-well plates at a density of 2 × 10^4 cells per well to confluence. After 24 h, the cells were treated with the compounds (1–500 μM). MTT assay was performed to measure the metabolic activity in living cells. The mitochondria succinate dehydrogenase system of living cells metabolized yellow-colored, water-soluble, tetrazolium salt MTT (3-(4,5-dimethylthiazol2-yl)-2,5-diphenyltetrazolium bromide to a purple insoluble formazan crystal. The cells were incubated with the test solutions for 24 h, the MTT solution (10 mg/mL in PBS) was then added to each well, and the mixture was incubated at 37 °C for 3 h. Thereafter, the MTT solution was carefully aspirated, and the obtained formazan crystals were dissolved by the addition of […] DMSO. The cell viability was determined by measuring the optical density −570–690 nm in a multiplate reader Synergy 2 (BioTek Instruments, Inc., Highland Park, Winooski, VT, USA).

SH-SY5Y cells [2] = experiment: H2O2-induced oxidative stress model, protection by MTT; type: cell-based, human; details: H2O2 1 mM, 15 min; for protective effect against H2O2-induced oxidative stress (in words): 1, 10, 20 µM pre-incubation 90 min; for protection at the lowest tested concentration (in words): 1 µM pre-incubation 90 min
Protocol: The cells were pre-incubated with the tested compounds at concentrations 1, 10, and 20 µM for 90 min. Melatonin was used as a reference compound because of its well-established neuroprotective effects in various in vitro and in vivo models. After 90 min pre-incubation with the test substances, SH-SY5Y cells were exposed to H2O2 (1 mM, 15 min), as described in the Materials and Methods section.
as §2
For the H2O2-induced oxidative stress model, SH-SY5Y cells were seeded in 96-well plates at a density of 3.5 × 10^4/well in 100 μL for 24 h. Afterwards, the cell medium was aspirated, and the cells were treated with different concentrations of tested compounds (1, 10, 20 µM) for 90 min; then, the SH-SY5Y cells were washed with phosphate-buffered saline (PBS) and were exposed to the oxidative stress (H2O2 1 mM in PBS, 15 min). The contents of all wells were changed with culture medium. After 24 h, the amount of attached viable cells was evaluated by MTT assay. Negative controls (cells without hydrogen peroxide treatment) were considered as 100% protection, and hydrogen-peroxide-treated cells as 0% protection.

[3] = ABTS radical scavenging assay; type: biochemical; details: for radical scavenging effect (in words): 1 mg/mL, structure-activity discussion of the ABTS/DPPH results; for ABTS scavenging activity: 1 mg/mL in methanol, 10 min, 734 nm
Protocol: During the 2,2′-azino-bis(3-ethylbenzothiazoline-6-sulphonic acid) (ABTS) assay, the discoloration of the initial color could be detected at 734 nm.
The ABTS radical tests were measured according to a modified method of Arnao et al.. The test solutions were dissolved in methanol (1 mg/mL) at ambient temperature. The radical cation of ABTS (ABTS^+•) was created by mixing 7 mmol/L solution of ABTS and 2.4 mmol/L solution of potassium persulphate, which were set to react for 14 h in the dark at room temperature. The working solutions consisted of 2 mL of the stock solution diluted in 50 mL of methanol with an absorbance of […] units at 734 nm. Then, 1 mL of the ABTS working solution was allowed to react with the title compounds for 10 min, with a subsequent absorbance determination. The inhibition percentages were evaluated by applying the same formula as the DPPH assay (4). ABTSscavenging activity = Abscontrol − Abssample/Abscontrol × 100%(4) where Abscontrol is the absorbance of the ABTS radical in methanol, and Abssample is the absorbance of the ABTS radical solution mixed with the sample.

[4] = DPPH radical scavenging assay; type: biochemical; details: 1 mg/mL in methanol, 30 min, 517 nm
Protocol: The 1,1-diphenyl-2-picrylhydrazyl (DPPH) radical scavenging activity of the newly synthesized derivatives was determined at one concentration—1 mg/mL. Trolox was used as a standard.
The scavenging assay of the title compounds against DPPH radical was carried out by the widely employed protocol of Brand-Williams et al.. Briefly, a single concentration of 1 mg/mL for each synthesized compound in methanol was obtained. Subsequent addition of 1 mL of the methanol solution of DPPH (1 mmol/L) was performed. The reaction mixtures were incubated in the dark for 30 min. The absorbance was measured at 517 nm. Three measurements were carried out for each sample; 6-Hydroxy-2,5,7,8- tetramethylchroman-2-carboxylic acid (Trolox) was applied as a standard. The percentage inhibition of the tested samples was calculated by the following Formula (3):DPPHscavenging activity = Abscontrol − Abssample/Abscontrol × 100%(3) where Abscontrol is the absorbance of the DPPH radical in methanol, and Abssample is the absorbance of the DPPH radical solution mixed with the sample.

SH-SY5Y cells [5] = experiment: MTT cell viability assay (cytotoxicity); type: cell-based, human
Protocol: as §1, §2, §3

Structure (SMILES) | IC50 at 24 h [1] | protective effect against H2O2-induced oxidative stress (in words) (SH-SY5Y cells [2]) | radical scavenging effect (in words) [3] | melting point | DPPH scavenging activity [4] | ABTS scavenging activity [3] | toxicity relative to 7d (times higher) (SH-SY5Y cells [5]; from IC50 values) | cytotoxicity (in words) (SH-SY5Y cells [5]; 24 h) | protection at the lowest tested concentration (in words) (SH-SY5Y cells [2])
COc1ccc2[nH]cc(CCNC(C)=O)c2c1 [Melatonin, reference compound] | > 500 µM | dose-dependent protective effects | – | – | – | – | – | – | –
CCOC(=O)c1cc(-c2ccc(Br)cc2)n(CC(=O)N/N=C/c2ccc(Cl)cc2)c1C [7b, (E)-ethyl 5-(4-bromophenyl)-1-(2-(2-(4-chlorobenzylidene)hydrazinyl)-2-oxoethyl)-2-methyl-1h-pyrrole-3-carboxylate] | 67.6 µM | – | negligible effect | 229.4 to 231.2 °C | – | – | – | – | –
CCOC(=O)c1cc(-c2ccc(Br)cc2)n(CCC(=O)N/N=C/c2cc(OC)c(O)c(OC)c2)c1C [8d, (E)-ethyl 5-(4-bromophenyl)-1-(3-(2-(4-hydroxy-3,5-dimethoxybenzylidene) hydrazine-yl)-3-oxopropyl)-2-methyl-1H-pyrrole-3-carboxylate] | 57.3 µM | – | – | 196.6 to 197.6 °C | 19% | 89% | 1.7 times | – | –
CCOC(=O)c1cc(-c2ccc(Br)cc2)n(CCC(=O)N/N=C/c2ccc(Cl)cc2)c1C [8b, (E)-ethyl 5-(4-bromophenyl)-1-(3-(2-(4-chlorobenzylidene)hydrazinyl)-3-oxopropyl)-2-methyl-1H-pyrrole-3-carboxylate] | 57.4 µM | – | – | 181.4 to 184.6 °C | – | – | – | – | –
Cc1c(C)c2c(c(C)c1O)CCC(C)(C(=O)O)O2 (stereo not drawn) [Trolox, 6-Hydroxy-2,5,7,8-tetramethylchroman-2-carboxylic acid, reference compound] | – | – | – | – | 94% | – | – | – | –
CCOC(=O)c1cc(-c2ccc(Br)cc2)n(CCC(=O)N/N=C/c2ccc(OC)cc2OC)c1C [8e, (E)-ethyl 5-(4-bromophenyl)-1-(3-(2-(2,4-dimethoxybenzylidene)hydrazinyl)-3-oxopropyl)-2-methyl-1H-pyrrole-3-carboxylate] | 91.1 µM | lower antioxidant protection; also recorded: lower than melatonin | lack of radical scavenging effects | 170 to 171.9 °C | – | – | – | – | –
CCOC(=O)c1cc(-c2ccc(Br)cc2)n(CC(=O)N/N=C/c2ccc([N+](=O)[O-])cc2)c1C [7c, (E)-ethyl 5-(4-bromophenyl)-2-methyl-1-(2-(2-(4-nitrobenzylidene)hydrazinyl)-2-oxo-ethyl)-1H-pyrrole-3-carboxylate] | > 500 µM | most potent protection; also recorded: stronger protective effects | – | 245.9 to 247.2 °C | – | – | – | non-toxic | –
CCOC(=O)c1cc(-c2ccc(Br)cc2)n(CC(=O)N/N=C/c2ccc(N(C)C)cc2)c1C [7a, (E)-ethyl 5-(4-bromophenyl)-1-(2-(2-(4-(dimethylamino)benzylidene)hydrazinyl)-2-oxoethyl)-2-methyl-1H-pyrrole-3-carboxylate] | 55.8 µM | – | – | 211.4 to 213.6 °C | – | 22% | – | – | –
CCOC(=O)c1cc(-c2ccc(Br)cc2)n(CCC(=O)N/N=C/c2ccc([N+](=O)[O-])cc2)c1C [8c, (E)-ethyl 5-(4-bromophenyl)-2-methyl-1-(3-(2-(4-nitrobenzylidene)hydrazinyl)-3-oxopropyl)-1H-pyrrole-3-carboxylate] | 58.2 µM | – | – | 214.4 to 217.1 °C | – | – | – | – | –
CCOC(=O)c1cc(-c2ccc(Br)cc2)n(CC(=O)N/N=C/c2ccc(OC)cc2OC)c1C [7e, (E)-ethyl 5-(4-bromophenyl)-1-(2-(2-(2,4-dimethoxybenzylidene)hydrazinyl)-2-oxo-ethyl)-2-methyl-1H-pyrrole-3-carboxylate] | 63.1 µM | – | lack of radical scavenging effects | 206 to 207.6 °C | – | – | – | – | statistically significant protection
CCOC(=O)c1cc(-c2ccc(Br)cc2)n(CCC(=O)N/N=C/c2ccc(N(C)C)cc2)c1C [8a, (E)-ethyl 5-(4-bromophenyl)-1-(3-(2-(4-(dimethylamino)benzylidene)hydrazinyl)-3-oxopropyl)-2-methyl-1H-pyrrole-3-carboxylate] | 56.3 µM | – | – | 212 to 213.3 °C | – | 48% | – | – | –
CCOC(=O)c1cc(-c2ccc(Br)cc2)n(CC(=O)N/N=C/c2cc(OC)c(O)c(OC)c2)c1C [7d, (E)-ethyl 5-(4-bromophenyl)-1-(2-(2-(4-hydroxy-3,5-dimethoxybenzylidene)hydrazine-yl)-2-oxoethyl)-2-methyl-1H-pyrrole-3-carboxylate] | 99.6 µM | better protection in all tested concentrations than the reference compound melatonin; also recorded: stronger protective effects | – | 191.9 to 194.4 °C | 24% | 83% | – | – | statistically significant protection
